Like-named read-outs stand apart in the source and are kept apart here.
Legend:
human liver cathepsin L = target: T1, human liver cathepsin L (Homo sapiens, UniProt P07711); test: Cathepsin L assay, IC50 determination; type: biochemical
T1 construct: 8.7 ng/mL human liver cathepsin L (Calbiochem 219402); purchased Calbiochem 219402; host or cells: human liver
Summary of the method: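 Enzyme (300 pM) pre-activated for 30 min in 20 mM sodium acetate, 1 mM EDTA, 5 mM cysteine, pH 5.5, then incubated 1 h at room temperature with 1 microM Z-Phe-Arg-AMC and compound. Fluorescent read-out on a microplate reader; IC50 in triplicate.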

Human liver cathepsin B = target: T2, Human liver cathepsin B (Homo sapiens, UniProt P07858); test: Cathepsin B assay, IC50 determination; type: biochemical
T2 construct: Human liver cathepsin B (Calbiochem 219362, 65 ng/mL); purchased Calbiochem 219362; host or cells: human liver
Summary of the method: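 Spleen cathepsin S (40 ng/mL) with 15 microM Z-Phe-Arg-AMC and liver cathepsin B (65 ng/mL) with 15 microM Z-Arg-Arg-AMC, in 20 mM sodium acetate, 1 mM EDTA, 5 mM cysteine, pH 5.5. AMC fluorescence release monitored; IC50 measured in triplicate.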

human cathepsin K = target: T3, human cathepsin K (Homo sapiens, UniProt P43235); test: Selectivity assay, cathepsin K; type: biochemical
T3 construct: purchased Calbiochem 342001
T3 sequence (P43235 115-329): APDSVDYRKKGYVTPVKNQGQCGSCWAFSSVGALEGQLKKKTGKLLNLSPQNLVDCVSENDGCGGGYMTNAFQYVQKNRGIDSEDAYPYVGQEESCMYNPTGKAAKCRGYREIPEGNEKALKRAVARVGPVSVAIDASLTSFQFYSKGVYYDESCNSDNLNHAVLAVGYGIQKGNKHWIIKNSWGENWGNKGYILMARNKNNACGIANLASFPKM
Procedure: Compound No. 1 was assayed for inhibition against papain and cathepsins B, G, K, S, and V. Papain from Carica papaya (Calbiochem 5125, 11 ng/mL), human cathepsin K (Calbiochem 342001, 35 ng/mL), human spleen cathepsin S (Calbiochem 219344, 40 ng/mL), and human cathepsin V (Calbiochem 219467, 39 ng/ml) were assayed using Z-Phe-Arg-AMC substrate at 20 μM, 20 μM, 15 μM, and 1 μM, respectively. Human liver cathepsin B (Calbiochem 219362, 65 ng/mL) was assayed using 15 μM Z-Arg-Arg-AMC substrate (Bachem I-1135). Human neutrophil cathepsin G (Calbiochem 219373, 4.2 μg/mL) was assayed using 15 μM Suc-Ala-Ala-Pro-Phe-AMC substrate (Sigma S9761). All reactions were performed in 20 mM sodium acetate buffer containing 5 mM cysteine and 1 mM EDTA, pH 5.5. Reaction progress was monitored using the Envision microplate reader. IC50 values were measured in triplicate.

[1] = Stability in DMSO and cathepsin L assay buffer; type: physicochemical
Excerpt: Some variability in IC50 values determined for Compound (iii) prompted us to explore the stability of both Compound No. 1 and Compound (iii) in solvents relevant to the bioassay.

human cathepsin L [2] = target: T4, human cathepsin L (Homo sapiens, UniProt P07711); test: Nonlinear regression of transient kinetics (data fitting)
human cathepsin L [3] = target: T4, human cathepsin L; test: Preincubation studies, cathepsin L; type: biochemical; design: 8.7 ng/mL human liver cathepsin L (Calbiochem 219402); purchased Calbiochem 219402; host or cells: human liver
Procedure: To establish the time-dependent mechanism of inhibition, enzyme and inhibitor were preincubated for various time points in a 96-well microplate prior to the addition of substrate to initiate the enzymatic reaction. 47.5 μL of cathepsin L (18.3 ng/mL) and 47.5 μL of Compound No. 1 at various concentrations in assay buffer were incubated up to 4 hours. Five μL of Z-Phe-Arg-AMC substrate were then added and the plate was monitored for AMC hydrolysis on the Envision fluorescent microplate reader.

T1 sequence (P07711 114-288 limits assumed): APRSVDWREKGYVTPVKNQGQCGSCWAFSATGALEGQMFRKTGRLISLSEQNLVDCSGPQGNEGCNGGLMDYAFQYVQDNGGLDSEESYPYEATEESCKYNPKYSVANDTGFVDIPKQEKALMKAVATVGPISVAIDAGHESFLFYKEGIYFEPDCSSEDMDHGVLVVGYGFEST
T1 sequence (P07711 292-333 limits assumed): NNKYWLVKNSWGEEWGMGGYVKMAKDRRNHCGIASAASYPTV
T4 sequence (P07711 114-288 limits assumed): as the sequence (P07711 114-288 limits assumed) above
T4 sequence (P07711 292-333 limits assumed): as the sequence (P07711 292-333 limits assumed) above

## CCc1ccccc1NC(=O)CSC(=O)NNC(=O)[C@H](Cc1c[nH]c2ccccc12)NC(=O)OC(C)(C)C [Compound No. 1]
Human liver cathepsin L; Cathepsin L, human liver, 10 min
  Selectivity Index @ 10 min: 1
Human liver cathepsin L; Cathepsin L, human liver, no preincubation, 30 min, read-out: IC50 @ 30 min
  IC50: 75 ± 5 nM
Human liver cathepsin L; Cathepsin L, human liver, no preincubation, 60 min, read-out: IC50 @ 60 min
  IC50: 56 ± 4 nM
Human liver cathepsin L; Cathepsin L, human liver, no preincubation, 90 min, read-out: IC50 @ 90 min
  IC50: 50 ± 3 nM
Human liver cathepsin L; Cathepsin L, 30 min
  Selectivity Index @ 30 min: 1
Human liver cathepsin L; Cathepsin L, 60 min
  Selectivity Index @ 60 min: 1
Human liver cathepsin L; Cathepsin L, 90 min
  Selectivity Index @ 90 min: 1
Human liver cathepsin L; Cathepsin L, IC50 protease / IC50 cathepsin L, over 10-90 min
  Selectivity Index: 1
Human liver cathepsin L; IC50 @ 10 min, Cathepsin L, human liver, no preincubation, 10 min
  IC50: 155 ± 12 nM
Human liver cathepsin L; Table 1, read-out: IC50 Cat L
  IC50: 56 nM
Human liver cathepsin L; Table 17, n = 3, C, S or O at the sulfur position, read-out: Cathepsin L inhibitory activity IC50
  IC50: 56 ± 4 nM
Human liver cathepsin L; no preincubation of enzyme and inhibitor, read-out: IC50 against cathepsin L (no preincubation)
  IC50: 56 nM
Human liver cathepsin B; Cathepsin B vs cathepsin L, 10 min
  Selectivity Index @ 10 min: 48
Human liver cathepsin B; Cathepsin B vs cathepsin L, 30 min
  Selectivity Index @ 30 min: 40
Human liver cathepsin B; Cathepsin B vs cathepsin L, 60 min
  Selectivity Index @ 60 min: 45
Human liver cathepsin B; Cathepsin B vs cathepsin L, 90 min
  Selectivity Index @ 90 min: 50
Human liver cathepsin B; Cathepsin B vs cathepsin L, over 10-90 min
  Selectivity Index: 40-50
Human liver cathepsin B; Cathepsin B, no preincubation, 30 min, read-out: IC50 @ 30 min
  IC50: 2980 ± 295 nM
Human liver cathepsin B; Cathepsin B, no preincubation, 60 min, read-out: IC50 @ 60 min
  IC50: 2530 ± 73 nM
Human liver cathepsin B; Cathepsin B, no preincubation, 90 min, read-out: IC50 @ 90 min
  IC50: 2510 ± 139 nM
Human liver cathepsin B; IC50 @ 10 min, Cathepsin B, human liver, no preincubation, 10 min
  IC50: 7490 ± 693 nM
Human liver cathepsin B; Table 1, read-out: IC50 Cat B
  IC50: 4450 nM
Human cathepsin K
  IC50: 17600 ± 1040 nM
Human cathepsin K; Cathepsin K vs cathepsin L, 10 min
  Selectivity Index @ 10 min: 114
Human cathepsin K; Cathepsin K vs cathepsin L, 30 min
  Selectivity Index @ 30 min: 113
Human cathepsin K; Cathepsin K vs cathepsin L, 60 min
  Selectivity Index @ 60 min: 151
Human cathepsin K; Cathepsin K vs cathepsin L, 90 min
  Selectivity Index @ 90 min: 137
Human cathepsin K; Cathepsin K vs cathepsin L, over 10-90 min
  Selectivity Index: 113-151
Human cathepsin K; Cathepsin K, no preincubation, 30 min, read-out: IC50 @ 30 min
  IC50: 8460 ± 366 nM
Human cathepsin K; Cathepsin K, no preincubation, 60 min, read-out: IC50 @ 60 min
  IC50: 8440 ± 140 nM
Human cathepsin K; Cathepsin K, no preincubation, 90 min, read-out: IC50 @ 90 min
  IC50: 6857 ± 63 nM
[1]; DMSO, room temperature
  stability in DMSO: completely stable
[1]; NaOAc (20 mM), pH 5.5, EDTA (1 mM), cysteine (5 mM)
  stability in cathepsin L assay buffer: completely stable
Human cathepsin L [2]
  Ki: 0.89 nM
  koff: 2.2e-05 s⁻¹
  kon: 24000 M⁻¹ s⁻¹
Human cathepsin L [3]; IC50 against human cathepsin L after 1 hour preincubation, preincubation with enzyme 1 h prior to substrate addition
  IC50: 7.5 ± 1 nM
Human cathepsin L [3]; IC50 against human cathepsin L after 2 hours preincubation, preincubation with enzyme 2 h
  IC50: 4.2 ± 0.6 nM
Human cathepsin L [3]; preincubation with enzyme 4 h, read-out: IC50 against human cathepsin L after 4 hours preincubation
  IC50: 1 ± 0.5 nM

From US20110207726A1, “Inhibitors of Human Cathepsin L, Cathepsin B, and Cathepsin S” (The Trustees of the University of Pennsylvania, priority 2008, published 2011)
